According to paper PMC11799930, “Discovery of potent measles virus fusion inhibitor peptides via structure-guided derivatization” (RSC Medicinal Chemistry, 2025):
Converted amounts (≈) assume the structure as drawn. “Also recorded” adds a separate entry of the source. Read-outs that look alike come from different tables or passages of the source. Where a SMILES comes first, the peptide text is derived from it. [ ]: non-standard residue; d: D form. The star is where a group is joined. Cbz = O=C(OCc1ccccc1)*; AEEA = NCCOCCOCC(=O)O

Tests used:
MeV-F wild type = target: T1, MeV-F wild type (Measles virus, UniProt Q786F3); assay type: cell-based; conditions: qualitative; for inhibition of syncytia formation: 24 h
T1 construct: wild-type full-length MeV-H (pCA7-ICH) and MeV-F; expressed in transfected cells; host or cells: Vero/hSLAM cells
Source text: To obtain new interactions, we designed and synthesized FIP-NH2 derivatives in which Gly residue is replaced with a D-amino acid residue shown in Fig. 3a (FIP-G3x-NH2, x = d, e, h, k, n, q, r, s, t). To avoid proteolytic degradation of the derivatized peptides, D-amino acid residues were adopted. Because FIP consists of hydrophobic structures, polar residues were recruited for replacing the Gly residue to avoid poor aqueous solubility of the resulting derivatives. The inhibitory activities of the synthesized derivatives were evaluated by cell-to-cell fusion assay. In this assay, each FIP derivative was added to the medium of Vero/hSLAM cells transiently expressing MeV-F, MeV-H, and EGFP, and the cells were incubated at 37 °C for 24 h. The cells were observed under a fluorescence microscope, and inhibition of the syncytia formation was qualitatively assessed based on the size and area of emitting fluorescence (Fig. 3b). We also synthesized and evaluated the reverse sequence of FIP, FIP-rev (Z-Gly-Phe-D-Phe-OH), and the enantiomer of FIP, FIP-enan (Z-Phe-D-Phe-Gly-OH), as negative controls.
Fig. 3 Chemical structures and cell-to-cell fusion assay of FIP and its derivatives using Vero/hSLAM cells expressing MeV-F and MeV-H. a) Chemical structures of FIP and its derivatives. b) A schematic illustration of cell-to-cell fusion assay. […] All the experiments were conducted in triplicate. […]
(BZ-X710, keyence) after incubation for 48 h at 37 ℃.
Cell-to-cell fusion assay using wild-type MeV-F plasmid. Vero/hSLAM cells in 96-well plate were transfected with 0.01 µg pCA7-ICH, 0.0375 µg pCA7-ICF and 0.3 µg pCA7 plasmid encoding EGFP (pCA7-EGFP) using VeroFect (0.695 µL, OZ Biosciences) in 10% FBS/DMEM when the confluency of the cells was about 90%. FIP or an FIP derivative in DMSO was added in each sample to 100 or 0.5 µM as the final […]
concentration. […]

MeV-EGFP [1] = conditions: viral entry inhibition assay; for IC50 / IC90: Vero/hSLAM cells, MeV-EGFP; for IC50: triplicate; for IC90: calculated from Hill coefficient and IC50
Experimental: (§1) To evaluate how modifying the C-terminus of FIP affects the interactions of FIP and MeV-F, we synthesized three FIP derivatives, named FIP-G3A, FIP-G3a, and FIP-NH2 (Fig. 2a). The inhibitory activities of the derivatives were evaluated using a virus-mediated cell-to-cell fusion assay (Fig. 2b). In this assay, Vero cells stably expressing hSLAM (Vero/hSLAM cells)[21] were infected with EGFP-recombinant MeV (MeV-EGFP) for 1 h at 37 °C, then the medium containing MeV-EGFP was replaced with a medium containing each FIP derivative and incubated at 37 °C for 48 h. The inhibitory activity was assessed based on the size and area of the syncytia observed by fluorescence microscopy, albeit qualitatively. […] To more quantitatively compare the inhibitory activity of FIP and FIP-NH2 against MeV infection in cells, a viral entry inhibition assay was conducted using a serially diluted compound, and the IC50 and IC90 values of the compounds were determined. In this assay, Vero/hSLAM cells were infected with inhibitor-treated MeV-EGFP at 37 °C for 1 h. Subsequently, the supernatant was replaced with a medium containing 100 μM of FIP, and the cells were further incubated at 37 °C for 48 h. Finally, the number of virus-infected cells was quantified using fluorescence microscopy. […]
pfu/well and incubated with peptide solution in 10% FBS/DMEM containing 0–1% DMSO for 30 min at room temperature. Vero/hSLAM cells were then infected with the inhibitor-treated MeV-EGFP for 1 h at 37 °C. The supernatant, including the virus, was replaced with 100 µM FIP (Peptide Institute, Inc. cat#4092) solution in 0–1% DMSO in 10% FBS/DMEM, and EGFP-positive cells were counted under fluorescence microscopy (BZ-X710, keyence) after incubation for 48 h at 37 ℃. The entry inhibition rate was calculated as 100 − (the number of sample EGFP positive cells − the number of cell-only control EGFP positive cells) / (the number of viral control EGFP positive cells − the number of cell-only control EGFP positive cells) × 100. This experiment was performed in triplicate. IC50 values were calculated using parameters determined by fitting the plot to a four-parameter logistic regression model (Hill equation) implemented in Python (Matplotlib and SciPy libraries). The equation used was: y = d + (a – d) / (1 + (x / c)b). x, y, a, b, c, and d represent peptide concentration, fraction of infected cells, maximum response, Hill coefficient (degree of cooperativity), IC50, and minimum response, respectively. Curve fitting was performed using the curve_fit function from the SciPy library, and IC90 values were calculated using the derived Hill coefficient and IC50 values. […]
(BZ-X710, keyence) after incubation for 48 h at 37 ℃. […]

MeV-EGFP [2] = test: Virus-mediated cell-to-cell fusion assay (syncytia in Vero/hSLAM cells infected with MeV-EGFP); assay type: cell-based, Measles virus; conditions: 48 h, qualitative
Experimental: as §1
Virus-mediated cell-to-cell fusion assay. Vero/hSLAM cells were cultured in 96 well plates (Thermo scientific cat#167008) overnight at 37 ℃. Vero/hSLAM cells were then infected with MeV-EGFP (200 pfu / well) for 1 h. The supernatant, including the virus, was replaced with 10% FBS/DMEM with or without 1, 10, 100 µM FIP or a FIP derivative. The images of cell-to-cell fusion were captured by fluorescence microscopy (BZ-X710, keyence) after incubation for 48 h at 37 ℃.

[3] = target: MeV-F (prefusion-stabilized ectodomain trimer); test: Surface plasmon resonance (SPR) binding to MeV-F; parameters: species or system Measles virus; conditions: peptides (EG-K derivatives) immobilized on sensor chip, MeV-F as analyte, 25 °C
physchem = assay type: physicochemical
[4] = 1 μM inhibitor in serum
MeV = tested on: MeV; parameters: method as in PMID 7414950; conditions: plaque assay for MeV; cited from earlier work
in vitro = conditions: bovine
E471S mutant of MeV-F = target: T2, E471S mutant of MeV-F (Measles virus, UniProt Q786F3, E471S); test: Cell-to-cell fusion assay using MeV-F E471S mutant; assay type: cell-based; conditions: Fig. 4e, qualitative
T2 construct: Full-length E471S MeV-F was amplified through PCR and site-directed mutagenesis; expressed in transfected cells; host or cells: Vero cells per the methods
Source text: To identify the plausible new interactions formed between FIP-G3r-NH2 and MeV-F, we conducted docking simulations using Autodock Vina.[22,23] First, we conducted a docking simulation of FIP and MeV-F to assess the reliability of the docking simulations (Fig. 4a). […] We then conducted a docking simulation of FIP-G3r-NH2 and MeV-F (Fig. 4c). We found a docking pose in which the binding conformation of the main chain and the aromatic ring of FIP-G3r-NH2 is similar to that of FIP (Fig. 4d). […] It should be noted that the MeV-F E471S mutant protein was synthetically produced for this experiment, and, to our knowledge, this mutant has not been reported as a natural variant. […]
pfu/well and incubated with peptide solution in 10% FBS/DMEM containing 0–1% DMSO for 30 min at room temperature. […] The supernatant, including the virus, was replaced with 100 µM FIP (Peptide Institute, Inc. cat#4092) solution in 0–1% DMSO in 10% FBS/DMEM, and EGFP-positive cells were counted under fluorescence microscopy (BZ-X710, keyence) after incubation for 48 h at 37 ℃. The entry inhibition rate was calculated as 100 − (the number of sample EGFP positive cells − the number of cell-only control EGFP positive cells) / (the number of viral control EGFP positive cells − the number of cell-only control EGFP positive cells) × 100. […]

With Cbz-Phe-[dF]-Gly-OH [FIP-enan] the “inhibition of syncytia formation” value (MeV-F wild type; 100 μM) was “lower inhibitory activity than FIP”.

For `NC(=O)CNC(=O)[C@H](Cc1ccccc1)NC(=O)[C@@H](Cc1ccccc1)NC(=O)OCc1ccccc1` [FIP-NH2] (Cbz-[dF]-Phe-Gly-NH2), the IC50 (MeV-EGFP [1]) was 510 nM, the IC90 (MeV-EGFP [1]) was 3600 nM and the “inhibition of syncytia formation” value (MeV-EGFP [2]; 1 μM) was “a little higher inhibitory activity than FIP”. The “inhibitory activity against MeV-induced cell fusion compared with FIP” value (MeV-EGFP [2]; 100, 10 or 1 μM) was “did not decrease the inhibitory activity” and the Kd [3] was 81 nM.

Compound `N=C(N)NCCC[C@@H](NC(=O)[C@H](Cc1ccccc1)NC(=O)[C@@H](Cc1ccccc1)NC(=O)OCc1ccccc1)C(=O)NCCOCCOCC(=O)N[C@@H](CCCCN)C(N)=O` [FIP-G3r-NH-EG-K] (Cbz-[dF]F[dR][AEEA]K-NH2) has a Kd [3] of 6.6 nM.

With `O=C(O)CNC(=O)[C@H](Cc1ccccc1)NC(=O)[C@@H](Cc1ccccc1)NC(=O)OCc1ccccc1` [FIP, Z-D-Phe-Phe-Gly, reference compound] (Cbz-[dF]-Phe-Gly-OH) the IC50 (MeV-EGFP [1]) was 1300 nM, the IC90 (MeV-EGFP [1]) was 12000 nM and the “inhibition of syncytia formation” value (MeV-EGFP [2]; 1 μM) was “inhibited fusion only weakly”. For the same compound, the “inhibition of syncytia formation” value (MeV-EGFP [2]; 10 μM) was “strongly inhibited syncytia formation”, the “inhibition of syncytia formation” value (MeV-EGFP [2]; 100 μM) was “strongly inhibited syncytia formation” and the “inhibition of syncytia formation” value (MeV-F wild type; 0.5 μM) was “weakly inhibited syncytia formation”. For the same compound, the “inhibition of syncytia formation” value (MeV-F wild type; 100 μM) was “strongly inhibited syncytia formation”, the solubility (physchem) was 98 ± 1 µM (≈ 49.3 µg/mL) and the “proteolytic stability in serum” value [4] was “high proteolytic stability”. The IC50 (MeV) was 200 nM and the half-life at 1 μM (in vitro) was > 24 h.

For Cbz-Gly-Phe-[dF]-OH [FIP-rev], the “inhibition of syncytia formation” value (MeV-F wild type; 100 μM) was “lower inhibitory activity than FIP”.

Work on `NCCCC[C@H](NC(=O)COCCOCCNC(=O)CNC(=O)[C@H](Cc1ccccc1)NC(=O)[C@@H](Cc1ccccc1)NC(=O)OCc1ccccc1)C(N)=O` [FIP-NH-EG-K] (Cbz-[dF]FG[AEEA]K-NH2) yielded a Kd [3] of 81 nM.

In the case of `N=C(N)NCCC[C@@H](NC(=O)[C@H](Cc1ccccc1)NC(=O)[C@@H](Cc1ccccc1)NC(=O)OCc1ccccc1)C(N)=O` [FIP-G3r-NH2] (Cbz-[dF]-Phe-[dR]-NH2), the IC50 (MeV-EGFP [1]) is reported as 210 nM, the IC90 (MeV-EGFP [1]) is reported as 1800 nM and the “fold higher inhibitory activity than FIP (IC50)” value (MeV-EGFP [1]; relative to FIP) is reported as “about six-fold”. For the same compound, the “inhibition of syncytia formation” value (MeV-F wild type; 0.5 μM) was “higher inhibitory activity than FIP-NH2; also recorded: completely inhibited the syncytia formation”, the “membrane fusion inhibitory activity” value (MeV-F wild type; MeV-F wild type (WT), Fig. 4e) was “higher membrane fusion inhibitory activity than FIP” and the “membrane fusion inhibitory activity” value (E471S mutant of MeV-F) was “dropped to the same level as FIP”. For the same compound, the Kd [3] was 6.6 nM, the solubility (physchem) was 83 ± 4 µM (≈ 49.9 µg/mL) and the “proteolytic stability in serum” value [4] was “high proteolytic stability”. For the same compound, the half-life at 1 μM (in vitro) was > 24 h.
